Molecular target: T1, Polyunsaturated fatty acid 5-lipoxygenase (Homo sapiens, UniProt P09917)
T1 sequence (P09917 whole entry): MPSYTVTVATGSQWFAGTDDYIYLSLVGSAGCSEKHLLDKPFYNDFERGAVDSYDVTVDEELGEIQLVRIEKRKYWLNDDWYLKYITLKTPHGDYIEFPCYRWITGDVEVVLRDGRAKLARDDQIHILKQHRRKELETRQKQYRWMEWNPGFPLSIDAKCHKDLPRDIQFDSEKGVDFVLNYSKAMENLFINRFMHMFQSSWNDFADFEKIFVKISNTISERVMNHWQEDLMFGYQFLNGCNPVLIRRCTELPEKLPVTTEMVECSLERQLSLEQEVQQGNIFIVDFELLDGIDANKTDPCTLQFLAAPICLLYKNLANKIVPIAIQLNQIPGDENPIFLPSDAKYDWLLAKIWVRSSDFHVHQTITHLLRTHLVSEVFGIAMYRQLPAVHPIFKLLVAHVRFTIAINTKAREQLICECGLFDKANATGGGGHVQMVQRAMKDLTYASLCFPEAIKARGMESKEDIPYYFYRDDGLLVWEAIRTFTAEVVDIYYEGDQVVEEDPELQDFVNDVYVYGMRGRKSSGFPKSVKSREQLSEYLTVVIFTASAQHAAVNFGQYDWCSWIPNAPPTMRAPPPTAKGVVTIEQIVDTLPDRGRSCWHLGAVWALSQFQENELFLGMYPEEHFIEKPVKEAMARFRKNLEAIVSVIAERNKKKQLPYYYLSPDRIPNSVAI
Assay: Inhibition of LT biosynthesis in vitro using A-23187-stimulated human whole blood.
Assay type: functional, tissue-based

For `COC1(c2cc(Sc3ccc(/C(C)=N/O)cc3)cc(F)c2C)CCOCC1`, the IC50 was 20 nM.

Molecule `CC1(C)OCC(C)(c2cccc(OCc3ccc4ccccc4c3)c2)O1` (stereo unspecified) has an IC50 of 350 nM.

For `CN(c1ccc(Sc2cc(C3(C)COC(C)(C)O3)cs2)cc1)S(C)(=O)=O` (stereo unspecified), the IC50 was 160 nM.

With `CO/N=C(\C)c1ccc(Sc2cc(C3(C)COC(C)(C)O3)cs2)cc1` (stereo unspecified) the IC50 was 270 nM.

With `C/C(=N\O)c1ccc(Sc2cc(C3(C)COC(C)(C)O3)cs2)cc1` (stereo unspecified) the IC50 was 40 nM.

For `CC(=O)c1ccc(Sc2cc(C3(C)COC(C)(C)O3)cs2)cc1` (stereo unspecified), the IC50 was 600 nM.

Molecule `CN(C)S(=O)(=O)c1ccc(Sc2cc(C3(C)COC(C)(C)O3)cs2)cc1` (stereo unspecified) has an IC50 of 210 nM.

Molecule `CN1C(=O)CCc2ccc(Sc3cc(C4(C)COC(C)(C)O4)cs3)cc21` (stereo unspecified) has an IC50 of 100 nM.

With `COC1(c2cc(OCc3ccc4c(ccc(=O)n4C)c3)cc(F)c2C)CCOCC1` the IC50 was 20 nM.

`CC(=O)N(C)c1ccc(Sc2cc(C3(C)COC(C)(C)O3)cs2)cc1` (stereo unspecified) was tested, and the IC50 was 150 nM.

`C/C(=N\OCC#N)c1ccc(S(=O)(=O)c2cc([C@@]3(C)COC(C)(C)O3)cs2)cc1` gave an IC50 of 50 nM.

In the case of `CC(=O)N(C)c1ccc(Sc2cc([C@]3(C)COC(C)(C)O3)cs2)cc1`, the IC50 is reported as 1180 nM.

`C/C(=N\O)c1ccc(S(=O)(=O)c2ncc([C@@]3(C)COC(C)(C)O3)s2)cc1` gave an IC50 of 200 nM.

Work on `C/C(=N\O)c1ccc(S(=O)(=O)c2cc([C@@]3(C)COC(C)(C)O3)cs2)cc1` yielded an IC50 of 90 nM.

With `CC(=O)c1ccc(Sc2ncc([C@@]3(C)COC(C)(C)O3)s2)cc1` the IC50 was 390 nM.

`COC1(c2cc(Sc3ccc4c(c3)OCC(=O)N4C)cc(F)c2C)CCOCC1` showed an IC50 of 40 nM.

In the case of `COC1(c2cc(S(=O)(=O)c3ccc4c(ccc(=O)n4C)c3)ccc2C)CCOCC1`, the IC50 is reported as 40 nM.

Molecule `COC1(c2cc(Sc3ccc4c(c3)CCC(=O)N4C)cc(F)c2C)CCOCC1` has an IC50 of 60 nM.

`C/C(=N\OCC#N)c1ccc(Sc2cc([C@@]3(C)COC(C)(C)O3)cs2)cc1` gave an IC50 of 10 nM.

`CC(=O)N(C)c1ccc(Sc2cc([C@@]3(C)COC(C)(C)O3)cs2)cc1` showed an IC50 of 40 nM.

`C/C(=N\O)c1ccc(Sc2cc([C@@]3(C)COC(C)(C)O3)cs2)cc1` was tested, and the IC50 was 40 nM.

`COC1(c2sc(Sc3ccc4c(c3)CCC(=O)N4C)nc2C)CCOCC1` was tested, and the IC50 was 140 nM.

With `C/C(=N\OCCN1CCOCC1)c1ccc(Sc2cc([C@@]3(C)COC(C)(C)O3)cs2)cc1` the IC50 was 1510 nM.

In the case of `C/C(=N\OCC#N)c1ccc(S(=O)(=O)c2ncc([C@@]3(C)COC(C)(C)O3)s2)cc1`, the IC50 is reported as 120 nM.

`CN1C(=O)COc2ccc(Sc3cc(C4(C)COC(C)(C)O4)cs3)cc21` (stereo unspecified) was tested, and the IC50 was 40 nM.

For `CC(=O)N(C)c1ccc(Sc2ncc([C@]3(C)COC(C)(C)O3)s2)cc1`, the IC50 was 6210 nM.

`COC1(c2cc(Sc3ccc(N(C)C(C)=O)cc3)cc(F)c2C)CCOCC1` gave an IC50 of 30 nM.

For `COC1(c2cc(Sc3ccc4c(c3)CCC(=O)N4C)sc2C)CCOCC1`, the IC50 was 20 nM.

In the case of `C/C(=N\O)c1ccc(Sc2ncc([C@@]3(C)COC(C)(C)O3)s2)cc1`, the IC50 is reported as 130 nM.

For `CC(=O)N(C)c1ccc(S(=O)(=O)c2cc(C3(C)COC(C)(C)O3)cs2)cc1` (stereo unspecified), the IC50 was 840 nM.

For `C/C(=N\OCC#N)c1ccc(Sc2ncc([C@@]3(C)COC(C)(C)O3)s2)cc1`, the IC50 was 30 nM.

— ChEMBL document CHEMBL1128582, “Chiral dioxolane inhibitors of leukotriene biosynthesis: structure-activity relationships and syntheses using asymmetric dihydroxylation” (J Med Chem, 1995)
